From the supplement of paper PMC10307832

What was measured:
Assay in all cases: relative viability (nuclei count vs DMSO), 5 days (fraction); higher = more cells survive
[1] = compound: CC1CC(=O)N(C2=CN=C(N=C2N1C3CCCC3)NC4=C(C=C(C=C4)C(=O)NC5CCN(CC5)C)OC)C [NPK76-II-72-1] + CC(=O)c1c(C)c2cnc(Nc3ccc(N4CCNCC4)cn3)nc2n(C2CCCC2)c1=O [Palbociclib] (partner 0.5 µM)
In short: (§1)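 Each reported value is a median over duplicate plates. It expresses relative viability: treated-well nuclei count divided by vehicle-well nuclei count. Lung cancer cell lines in 1536-well plates were dosed by pin tool a day after seeding, alone with one drug or with a fixed anchor-drug dose plus five library-drug doses (not always all listed) in √10 steps, and nuclei were counted after 5 days.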

BI-2536 + Palbociclib = compound: CC[C@@H]1C(=O)N(C)c2cnc(Nc3ccc(C(=O)NC4CCN(C)CC4)cc3OC)nc2N1C1CCCC1 [BI-2536] + CC(=O)c1c(C)c2cnc(Nc3ccc(N4CCNCC4)cn3)nc2n(C2CCCC2)c1=O [Palbociclib] (partner 0.5 µM)
In short: as §1

NPK76-II-72-1 + AZD7762 = compound: CC1CC(=O)N(C2=CN=C(N=C2N1C3CCCC3)NC4=C(C=C(C=C4)C(=O)NC5CCN(CC5)C)OC)C [NPK76-II-72-1] + NC(=O)Nc1cc(-c2cccc(F)c2)sc1C(=O)N[C@H]1CCCNC1 [AZD7762] (partner 0.2 µM)
In short: as §1

[2] = compound: CC1CC(=O)N(C2=CN=C(N=C2N1C3CCCC3)NC4=C(C=C(C=C4)C(=O)NC5CCN(CC5)C)OC)C [NPK76-II-72-1] + CCNC(=O)c1noc(-c2cc(C(C)C)c(O)cc2O)c1-c1ccc(CN2CCOCC2)cc1 [Luminespib] (partner 0.01 µM)
In short: as §1

| Cell Line | relative viability ([1]; first compound 0.01 µM) | relative viability ([1]; first compound 0.03162 µM) | relative viability ([1]; first compound 0.1 µM) | relative viability ([1]; first compound 0.3162 µM) | relative viability ([1]; first compound 1 µM) | relative viability (BI-2536 + Palbociclib; first compound 0.01 µM) | relative viability (BI-2536 + Palbociclib; first compound 0.03162 µM) | relative viability (BI-2536 + Palbociclib; first compound 0.1 µM) | relative viability (BI-2536 + Palbociclib; first compound 0.3162 µM) | relative viability (BI-2536 + Palbociclib; first compound 1 µM) | relative viability (NPK76-II-72-1 + AZD7762; first compound 0.01 µM) | relative viability (NPK76-II-72-1 + AZD7762; first compound 0.03162 µM) | relative viability (NPK76-II-72-1 + AZD7762; first compound 0.1 µM) | relative viability (NPK76-II-72-1 + AZD7762; first compound 0.3162 µM) | relative viability (NPK76-II-72-1 + AZD7762; first compound 1 µM) | relative viability ([2]; first compound 0.01 µM) | relative viability ([2]; first compound 0.03162 µM) | relative viability ([2]; first compound 0.1 µM) | relative viability ([2]; first compound 0.3162 µM) | relative viability ([2]; first compound 1 µM) |
| --- | --- | --- | --- | --- | --- | --- | --- | --- | --- | --- | --- | --- | --- | --- | --- | --- | --- | --- | --- | --- |
| HCC-44 | 0.982 | 1.08 | 0.993 | 0.935 | 1.01 | 1.05 | 0.959 | 0.947 | 0.404 | 0.312 | 1.02 | 1.09 | 0.966 | 0.999 | 1.07 | 0.977 | 1.26 | 0.996 | 1.02 | 1.2 |
| HCC-827 | 0.474 | 0.457 | 0.488 | 0.491 | 0.561 | 0.467 | 0.435 | 0.467 | 0.267 | 0.186 | 0.2 | 0.203 | 0.243 | 0.129 | 0.259 | 0.602 | 0.619 | 0.447 | 0.879 | 0.702 |
| NCI-H1623 |  |  |  |  |  |  |  |  |  |  |  |  |  |  |  | 0.448 | 0.382 | 0.513 | 0.421 | 0.574 |
| NCI-H2347 | 0.388 | 0.425 | 0.389 | 0.433 | 0.465 | 0.471 | 0.426 | 0.369 | 0.385 | 0.387 | 0.805 | 0.755 | 0.646 | 0.704 | 0.883 | 0.529 | 0.593 | 0.459 | 0.526 | 0.437 |
| PC-14 | 0.514 | 0.593 | 0.438 | 0.505 | 0.545 | 0.458 | 0.489 | 0.0853 | 0.0424 | 0.0288 | 0.356 | 0.312 | 0.337 | 0.358 | 0.344 | 0.133 | 0.125 | 0.239 | 0.132 | 0.164 |
| NCI-H1651 | 0.512 | 0.535 | 0.483 | 0.48 | 0.558 | 0.5 | 0.505 | 0.514 | 0.41 | 0.0953 | 0.436 | 0.449 | 0.471 | 0.377 | 0.501 | 0.925 | 0.995 | 0.698 | 0.743 | 0.852 |
| HARA | 0.27 | 0.267 | 0.254 | 0.21 | 0.295 | 0.265 | 0.346 | 0.295 | 0.151 | 0.136 | 0.292 | 0.464 | 0.297 |  | 0.451 | 0.854 | 0.831 | 0.668 | 0.439 | 0.895 |
| NCI-H1650 | 0.314 | 0.428 | 0.458 | 0.31 | 0.407 | 0.382 | 0.282 | 0.188 | 0.129 | 0.145 |  |  |  |  |  | 0.185 | 0.198 | 0.207 | 0.194 | 0.194 |
| NCI-H1395 | 0.627 | 0.621 | 0.621 | 0.661 | 0.616 | 0.574 | 0.516 | 0.339 | 0.347 | 0.375 | 0.388 | 0.341 | 0.4 | 0.396 | 0.387 | 0.774 | 0.76 | 0.678 | 0.709 | 0.863 |
